From patent publication US6821761B2, “Sphingolipid ceramide N-deacylase, methods for producing sphingolipids and sphingolipid derivatives, and sphingolipid ceramide N-deacylase gene” (Takara Bio, Inc., priority 1994, dated 2004) come the findings set out here.

The subject of data set [1] is SCDase derived from the genus Pseudomonas. In words: Fatty acid exchange reaction on various acceptors by SCDase. Conditions: 1 nmol [1-14C] stearic acid, 1 nmol sphingolipid, 30 μU SCDase, acetate buffer pH 6.0, 0.8% Triton X-100, overnight 37° C., galactosyl ceramide = 100. Format: biochemical. The method, then:
A 10 μl portion of 50 mM acetate buffer (pH 6.0) containing 1 nmol [1−^14C] stearic acid, 1 nmol sphingolipid, 0.8% Triton X-100 and 30 μU SCDase derived from the genus Pseudomonas was allowed to react overnight at 37° C.
The thus obtained reaction solution was developed on thin layer chromatography and exposed to an imaging plate to carry out determination of the reaction product by BAS 1000 Imaging Analyzer (manufactured by Fuji Photo Film).

In a further data set the test system is SCDase. Put plainly: Substrate specificity (hydrolysis) of purified SCDase from Pseudomonas sp. TK-4. The settings on record: 10 nmol sphingolipid, 2 milliunits enzyme, 37° C. 16 h, 20 mM sodium acetate buffer pH 5.0, 0.8% Triton X-100, TLC. In kind it is biochemical. The method, then:
(§1) The enzyme activity of the SCDase is assayed in the following manner. To 10 μl of a substrate solution [50 mM acetate buffer solution (pH 6.0) containing 2 mM of asialo GM1 and 0.6% (w/v) of Triton X-100] is added 10 μl of an enzyme solution. After reacting at 37° C. for 30 minutes, the enzyme reaction is ceased by heating the mixture to 100° C. for 3 minutes. Then the reaction mixture is concentrated to dryness with a centrifugal concentrator. Then the obtained concentrate is dissolved in 10 μl of 50% methanol and placed on a TLC plate (silica gel 60; manufactured by Merck & Co., Inc.). After developing with chloroform/methanol/0.02% aqueous solution of CaCl2 (5/4/1 by volume), the sphingolipid is subjected to color development by the orcinol-sulfuric acid method. […] This spot is determined by using a TLC chromatoscanner (Shimadzu CS-9000, manufactured by Shimadzu Corporation) at a wavelength of 540 nm.
Sphingolipids (10 nmol each) were incubated at 37° C. for 16 h with 2 milliunits of the enzyme in 20 μl of 20 mM sodium acetate buffer, pH 5.0, containing 0.8% Triton X-100. The extent of hydrolysis was examined by TLC and calculated.

Another data set concerns crude SCDase. In words: Substrate specificity of crude SCDase (culture supernatant) from Shewanella alga NS-589. Format: biochemical. The settings on record: for Substrate specificity: acting on the substrate, forming the corresponding lysosphingolipid and fatty acid: SCDase produced by Shewanella alga NS-589; for Digestion ratio (%): crude SCDase supernatant, 1.2 mM sphingolipid, acetate buffer pH 6.0, Triton X-100, 37° C. 16 hours, TLC. The source says:
Acting on acidic glycolipids (GM1, GM2, GD1a, GD1b, sialosyl paragloboside, etc.), neutral glycolipids (lactosyl ceramide, Gb4, Gb5, etc.), sulfated glycolipids (sulfatide, etc.) and sphingomyelin which is a sphingophospholipid, thus forming the corresponding lysosphingolipid and fatty acid in each case.
The substrate specificity was examined as follows. Shewanella alga NS-589 was inoculated into a synthetic medium (dipotassium hydrogenphosphate 0.05%, ammonium chloride 0.05%, sphingomyelin 0.1%, sodium taurodeoxycholate 0.1%, sodium chloride 2%, 2,6-O-dimethyl-β-cyclodextrin 0.1%; pH 7.4). Two days after shaking cultivation at 30° C., the strain was removed to obtain a supernatant by centrifuge. A 50 mM acetate buffer ([…]; pH 6.0) containing 3 μl of the supernatant and 1.6% Triton X-100 was allowed to react with 5 μl of 1.2 mM of each of sphingolipids shown in Table 2 at 37° C. for 16 hours, and then the resulting mixture was analyzed with a thin layer chromatography.
The digestion ratios of various substrates by a crude SCDase obtained from Shewanella alga NS-589.

Another data set has as its system Pseudomonas sp. TK-4. In words: Conversion of glycosphingolipids into lyso-forms by culture of Pseudomonas sp. TK-4. Format: cell-based. The settings on record: PY medium with 0.1% 2,6-O-dimethyl-β-cyclodextrin, glycosphingolipid 0.5 mg/ml (Gb4 0.1 mg/ml), 25° C. shaking 3 days, TLC of supernatant. On the procedure: A 60 ml portion of PY medium (polypeptone 0.5%, yeast extract 0.1%, sodium chloride 0.2%; pH 7.2) containing 30 mg of ganglioside GM1 (manufactured by Iatron) and 0.1% of 2,6-O-dimethyl-β-cyclodextrin was sterilized and inoculated with the strain which had been incubated overnight in a slant medium containing 0.1% of crude bovine brain ganglioside prepared in accordance with the method described in Methods in Enzymology, 14:660-664 (1969). Then, the strain was incubated therein under shaking at 25° C. for 3 days.
Then the cells were eliminated by centrifuging the culture medium and thus the culture supernatant was obtained.
PY medium (polypeptone 0.5%, yeast extract 0.1%, sodium chloride 0.2%; pH 7.2) containing 0.1% of 2,6-O-dimethyl-β-cyclodextrin was sterilized in an autoclave and filter-sterilized aqueous solutions of various glycosphingolipids [i.e., GM1, GM2 (manufactured by Matreya), GM3 (manufactured by Iatron), GD1a (manufactured by Iatron), GD1b (manufactured by Iatron), GD3 (manufactured by Iatron), GT1b (manufactured by Biocarb), sulfatide (manufactured by Matreya): each 0.5 mg/ml, Gb4 (manufactured by Iatron): 0.1 mg/ml] were added thereto. Then each medium was inoculated with Pseudomonas sp. TK-4, which had been incubated overnight in a slant medium containing 0.1% of crude bovine brain ganglioside, followed by incubation at 25° C. under shaking for 3 days.
Then the cells were eliminated by centrifuging the culture medium to obtain the culture supernatant which was then analyzed by thin layer chromatography.

The subject of data set [2] is SCDase derived from the genus Pseudomonas. Put plainly: Reverse reaction on various acceptors by SCDase-2 (N-trifluoroacetylated aminododecanoic acid). Conditions: 66.6 nmol N-trifluoroacetylated aminododecanoic acid, 33.3 nmol lysosphingolipid, 148 μU SCDase, glycine-NaOH pH 11, 0.3% Triton X-100, 48 hours 37° C. Format: biochemical. The method, then: A 41.6 μl portion of 25 mM glycine-sodium hydroxide buffer (pH 11) containing 66.6 nmol N-trifluoroacetylated aminododecanoic acid, 33.3 nmol lysosphingolipid, 0.3% Triton X-100 and 148 μU SCDase derived from the genus Pseudomonas was subjected to 48 hours of reaction at 37° C.
The thus obtained reaction solution was developed on thin layer chromatography, a glycosphingolipid was colored with orcinol-sulfuric acid, and other sphingolipids with Coomassie Brilliant Blue, and then determination of the reaction product was carried out by Imaging Densitometer (manufactured by Bio-Rad).

Data set [3] has the same test system. Put plainly: Reverse reaction on various acceptors by SCDase-1 ([1-14C] stearic acid). Format: biochemical. Conditions: 1 nmol [1-14C] stearic acid, 1 nmol lysosphingolipid, 30 μU SCDase, acetate buffer pH 6.0, 0.8% Triton X-100, overnight 37° C., galactosylsphingosine = 100. On the procedure: A 10 μl portion of 50 mM acetate buffer (pH 6.0) containing 1 nmol [1-^14C] stearic acid, 1 nmol lysosphingolipid, 0.8% Triton X-100 and 30 μU SCDase derived from the genus Pseudomonas was subjected to overnight reaction at 37° C. The thus obtained reaction solution was developed on thin layer chromatography and exposed to an imaging plate to carry out for determining the reaction product by BAS 1000 Imaging Analyzer (manufactured by Fuji Photo Film).

Data set [4] is described as follows: Enzymological properties of SCDase of Pseudomonas sp. TK-4 (optimum pH, temperature, stability). In kind it is biochemical. The method, then: as §1
One unit (1 U) of activity is defined as the amount of the enzyme liberating 1 μmol of lysoasialo GM1 per minute from asialo GM1 at 37° C. […]
The enzyme of the present invention is maintained at each definite pH value at 5C for 16 hours. After returning the pH value to 6.0, the enzyme activity is measured to thereby examine the pH stability of the enzyme. […]

Ceramide: the “Relative activity (%)” value in data set [1] amounted to 77.5%.

In the case of GD1a, the “Digestion ratio (%)” value in the data set on SCDase was 49%; in the data set on crude SCDase, 32.6%; in the data set with Pseudomonas sp. TK-4, 100%. Besides, the “Substrate specificity: acting on the substrate, forming the corresponding lysosphingolipid and fatty acid” value (shortened to “Substrate specificity: acting”) in the data set with crude SCDase was “Acting on”. Moreover, the “Relative activity (%)” value in data set [1] came out at 6.2%.

Take `CCCCCCCCCCCCC/C=C/[C@@H](O)[C@@H](N)CO` [Sphingosine, sphingosine]: the “Reaction Efficiency (%)” value in data set [2] is given as 69%. Besides, the “Relative activity (%)” value in data set [3] was 11.5%.

Regarding Gal-GalNAc-Gal-Glc-Cer [Asialo GM1], the “Digestion ratio (%)” value in the data set with SCDase is given as 67%. Also, the “Relative activity (%)” value in data set [1] was 164.0%.

As for GD1b, the “Substrate specificity: acting” value in the data set on crude SCDase is reported as “Acting on”. Moreover, the “Relative activity (%)” value in data set [1] amounted to 1.2%. Moreover, the “Digestion ratio (%)” value in the data set on Pseudomonas sp. TK-4 is 100%.

Take lactosyl ceramide [Lac-cer]: in the data set on SCDase, the “Digestion ratio (%)” value amounted to 64%. In the data set on crude SCDase, the “Substrate specificity: acting” value was “Acting on”; the “Digestion ratio (%)” value was 19.3%. Besides, the “Relative activity (%)” value in data set [1] is reported as 112.0%.

Turning to `CCCCCCCCCCCCC/C=C/[C@@H](O)[C@@H](N)CO[C@@H]1O[C@H](CO)[C@H](O)[C@H](OS(=O)(=O)O)[C@H]1O` [Lysosulfatide], the “Relative activity (%)” value in data set [3] amounted to 59.6%.

For the molecule Glucosyl ceramide [Glc-cer], the “Digestion ratio (%)” value in the data set on SCDase is 48%. Besides, in data set [1], the “Relative activity (%)” value was found to be 129.0%.

For the molecule `CCCCCCCCCCCCC/C=C/[C@@H](O)[C@@H](N)COP(=O)([O-])OCC[N+](C)(C)C` [Lysosphingomyelin, sphingosylphosphorylcholine], the “Relative activity (%)” value in data set [3] was determined as 5.7%.

Take `CCCCCCCCCCCCC/C=C/[C@@H](O)[C@@H](N)CO[C@@H]1O[C@H](CO)[C@@H](O[C@@H]2O[C@H](CO)[C@H](O)[C@H](O)[C@H]2O)[C@H](O)[C@H]1O` [Lysolactosyl ceramide]: the “Relative activity (%)” value in data set [3] stood at 37.2%.

As for Sulfatide, the figures for the “Digestion ratio (%)” value with SCDase and in the data set on Pseudomonas sp. TK-4 were 59% and 100%, respectively. In the data set on crude SCDase, the “Substrate specificity: acting” value was “Acting on”. Also, the “Relative activity (%)” value in data set [1] was found to be 31.7%.

As for `CCCCCCCCCCCCC/C=C/[C@@H](O)[C@@H](N)CO[C@@H]1O[C@H](CO)[C@@H](O[C@@H]2O[C@H](CO)[C@H](O[C@@H]3O[C@H](CO)[C@H](O)[C@H](O[C@@H]4O[C@H](CO)[C@H](O)[C@H](O)[C@H]4O)[C@H]3NC(C)=O)[C@H](O[C@]3(C(=O)O)C[C@H](O)[C@@H](NC(C)=O)[C@H]([C@H](O)[C@H](O)CO)O3)[C@H]2O)[C@H](O)[C@H]1O` [Lysoganglioside GM1a], in data set [2], the “Reaction Efficiency (%)” value was 29%. Moreover, the “Relative activity (%)” value in data set [3] was 15.4%.

Take GT1b: the results for the “Digestion ratio (%)” value with crude SCDase and in the data set with Pseudomonas sp. TK-4 were 26.2% and 100%, respectively.

For the molecule `CCCCCCCCCCCCC/C=C/[C@@H](O)[C@@H](N)CO[C@@H]1O[C@H](CO)[C@H](O)[C@H](O)[C@H]1O` [Galactosylsphingosine, galactosylsphingosine], the “Relative activity (%)” value in data set [3] was determined as 100.0%.

On to Galactosyl ceramide [Gal-cer], for which the “Digestion ratio (%)” value in the data set with SCDase is 42%. In addition, the “Relative activity (%)” value in data set [1] is 100.0%.

Take `CCCCCCCCCCCCCC=CC(O)C(N)COC1OC(CO)C(OC2OC(CO)C(O)C(OC3(C(=O)O)CC(O)C(NC(C)=O)C(C(O)C(O)CO)O3)C2O)C(O)C1O` (stereo not drawn) [Lysoganglioside GM3]: the “Reaction Efficiency (%)” value in data set [2] is 24%.

B1: SCDase (Pseudomonas sp. TK-4): sphingolipid ceramide N-deacylase produced by Pseudomonas sp. TK-4, SEQ ID NO:1 (protein)
chain: ELGDYGAWKTLLNLTSPPKADNPVRAEQRVGPYPMLANPAGFRSGFTPTAYFAWQTVQLAPETGAVCGDGSPYKFFVNRMPNTSNTLIYMEGGGACWDYASCSGQAGIRGARNPNGIPDDYMKLANPQASLVSPFVVRLHPYSRVKTQGWNIVYIPYCTGDLYAGDKVAVYDDPSGKKPPLVWHHNGLRNGRAVLGWLKDNLERPGQMLSTGCSAGGAGSLISHSVLRQDLAPDRGFLIDDSGPVFSAAVGGDSQTYPSLPLQNLIRSAWGLDQGPLQFLQSRLPGVSLSNLGSLYPALAANFPGDRLGHTHFWQDLNYSSYSYERFYPEIANAPDKATKEALIKAKWQVDTARLRDTLANLPNFGGYFPQYRALNESHCTTIVDFANGDIQEQGLELSHFIDNVLNGQGPVLDASELSDSADRAKPNNLIYDAINKLL
modifications: OTHER INFORMATION: Description of Unknown Or ganism: sphingolipid ceramide N-deacylase
B1: the “Optimum temperature (maximum activity)” value in data set [4] (FIG. 2) was “about 40 °C”. For the same molecule, the “Heat stability: activity sustained” value in data set [4] (after treating at 60° C. for 30 minutes, FIG. 4) turned out to be 90%.
